From patent US20250304587A1, “WEE1 INHIBITOR, PREPARATION THEREFOR AND USE THEREOF” (JIANGSU TASLY DIYI PHARMACEUTICAL CO., LTD., priority 2022, published 2025)
Where two headings read alike, the source gives them in different places.

Legend:
[1] = target: CYP1A2 (Homo sapiens (Human), UniProt P05177); assay: Cytochrome P450 inhibition (fluorescence), CYP1A2; format: in vitro ADME
Protocol: (§1) Enzymatic experiments were performed to quantify the inhibition of CYP450 enzyme activity of each isoform of CYP450 by small molecule inhibitors through fluorescence generated by the oxidation of the substrate by cytochrome P450. […] The Solution B composition used for the experiment was: 40 U/mL G6PDH (Sigma-aldrich, Cat #G6378). The substrate mix was 0.05× Solution A, 0.01× Solution B, 50 mM Potassium Phosphate, 0.01 mM BOMCC/0.01 mM EOMCC/0.001 mM DBOMF. […] The data were analyzed and processed using GraphPad Prism 6 software to obtain IC50 values.

[2] = Metabolic stability in liver microsomes, mouse; format: in vitro ADME
Protocol: (§2) Test Example 3: Evaluation of the Metabolic Stability of Liver Microsomes (Mouse and Human) In Vitro Microsomes were taken out from the −80° C. refrigerator, rapidly melted in a 37° C. water bath and placed on ice until ready to use. The test article was diluted with DMSO to prepare a 10 mM stock solution, and then diluted with acetonitrile to a 0.5 mM secondary stock solution. […] NADPH was diluted with Buffer C to a working solution of 6 mM for the starter solution. An acetonitrile solution containing an internal standard was prepared as the precipitant, and Verapamil-HCl was chosen as the internal standard at a concentration of 4 ng/ml. […] A separate plate with pointed bottom wells, noted as a precipitation plate, was added with 135 μL precipitant per well; 0 h samples were transferred to the plate after 10 min incubation and 15 μL of starter solution was added; the plate was placed on ice before centrifugation. The diluted starter solution was added in sufficient quantity to the dispensing plate to facilitate the multichannel pipette aspiration operation. The reaction was carried out on a warm incubation shaker and 15 μL of starter solution/sample is added to the plate using a multichannel pipette. The reaction was mixed with a slight shake to initiate the reaction, which was accurately timed and recorded using a timer; After the reaction time had elapsed, all the solution in the plate was aspirated using the multichannel pipette and added to the precipitation plate to terminate the reaction at that point in time. After all reactions had been terminated, the plates were shaken for ten minutes on a plate shaker at 600 rpm to precipitate the protein. The plate was centrifuged at 4° C. for 15 minutes at maximum rpm. 80 μL of supernatant was taken, 320 μL of pure water was added and mixed for LC-MS analysis.

[3] = target: hERG potassium channel (Homo sapiens (Human), UniProt Q12809); assay: hERG potassium channel inhibition, patch clamp in CHO hERG cells
Chain of hERG potassium channel (Q12809 whole entry): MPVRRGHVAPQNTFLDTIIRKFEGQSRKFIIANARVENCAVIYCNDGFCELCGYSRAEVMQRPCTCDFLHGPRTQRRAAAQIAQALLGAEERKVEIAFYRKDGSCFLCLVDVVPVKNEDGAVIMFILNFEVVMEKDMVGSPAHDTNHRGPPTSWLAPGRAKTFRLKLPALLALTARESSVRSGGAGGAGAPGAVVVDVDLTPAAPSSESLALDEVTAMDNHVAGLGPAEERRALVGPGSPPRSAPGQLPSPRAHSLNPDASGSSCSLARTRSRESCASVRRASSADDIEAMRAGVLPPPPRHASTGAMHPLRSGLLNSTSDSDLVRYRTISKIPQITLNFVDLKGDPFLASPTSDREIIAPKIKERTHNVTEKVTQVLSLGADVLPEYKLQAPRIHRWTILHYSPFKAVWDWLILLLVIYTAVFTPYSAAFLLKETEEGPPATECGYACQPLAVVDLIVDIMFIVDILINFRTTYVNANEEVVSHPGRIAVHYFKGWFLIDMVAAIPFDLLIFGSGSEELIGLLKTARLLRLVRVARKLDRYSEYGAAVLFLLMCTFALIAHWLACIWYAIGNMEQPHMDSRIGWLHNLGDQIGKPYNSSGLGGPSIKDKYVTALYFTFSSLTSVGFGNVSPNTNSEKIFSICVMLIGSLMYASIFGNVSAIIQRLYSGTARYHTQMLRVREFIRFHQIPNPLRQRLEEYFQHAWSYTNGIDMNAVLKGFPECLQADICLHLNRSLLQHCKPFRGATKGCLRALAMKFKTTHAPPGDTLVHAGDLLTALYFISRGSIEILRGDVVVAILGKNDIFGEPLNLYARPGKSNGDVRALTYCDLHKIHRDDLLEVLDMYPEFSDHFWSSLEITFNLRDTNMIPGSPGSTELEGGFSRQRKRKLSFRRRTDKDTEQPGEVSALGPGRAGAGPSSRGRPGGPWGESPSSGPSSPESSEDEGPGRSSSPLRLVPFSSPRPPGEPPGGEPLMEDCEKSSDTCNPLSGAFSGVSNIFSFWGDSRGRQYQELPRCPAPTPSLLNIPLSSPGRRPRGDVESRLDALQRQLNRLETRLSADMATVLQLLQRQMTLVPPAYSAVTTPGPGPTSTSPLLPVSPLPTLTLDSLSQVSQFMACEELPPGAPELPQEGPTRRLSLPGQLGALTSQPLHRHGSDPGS
Protocol: The cell line used for the patch clamp assay was a 10th generation CHO cell overexpressing hERG potassium channel cDNA. CHO hERG cells were cultured in Petri dishes or flasks at 37° C. in a 5% CO2 incubator. Cells were dropped onto circular slides 24-48 hours prior to electrophysiological experiments and cultured in cell culture medium and used for experiments after the cells had been adhered.
Cell culture medium (purchased from Invitrogen) Composition: • Ham's F12 medium • 10% (v/v) heat inactivated FBS • 100 μg/ml Hygromycin B (thaumatin) • 100 μg/ml Geneticin (Genomycin, G418)
Compound powders are dissolved in the extracellular solution and are subjected to a routine 5 to 10 minute sonication and shaking to ensure complete dissolution of the compound.
The final concentrations of compounds used for electrophysiological assays were 5, 20 μM and the final concentration of DMSO was 0.1%.
Cell membrane currents were recorded using a HEKA EPC-10 USB patch-clamp amplifier (HEKA Elektronik, Germany). • 1) A coverslip with a large number of uniformly growing individual CHO hERG cells on its surface was taken. Place in a continuous recording cell on an inverted microscope, perfused with extracellular fluid (approximately 1 ml per minute) and recorded continuously, waiting for the current to stabilize. • 2) Record HERG channel currents for individual cells using standard whole cell recording mode. The membrane voltage is first clamped at −80 mV and the cell is given a +20 mV stimulus for 5 s to activate the hERG potassium channel, then repolarized to −50 mV for 5 s to generate an outward tail current, which is continuously perfused until the current is stable, at which point the peak tail current is the control current value. • 3) The extracellular solution containing the drug to be tested was then perfused and recorded until the inhibitory effect of the drug on the hERG current reached a steady state, at which point the peak tail current was the post-drug current value. • 4) The cells are again perfused with the extracellular solution until the hERG current returns to or approaches the level prior to the addition of the drug, then the perfusion can be continued to test other concentrations or drugs. One or more compound or drug concentrations may be tested on each cell. • 5) Cisapride (C4740-10 mg, Sigma) is used as a positive control in the experiment to ensure that the cells used respond properly.

[4] = Metabolic stability in liver microsomes, dog; format: in vitro ADME
Protocol: as §2, with “Microsomes” for “Test Example 3: Evaluation of the Metabolic Stability of Liver Microsomes (Mouse and Human) In Vitro Microsomes”

[5] = target: CYP2D6 (Homo sapiens (Human), UniProt P10635); assay: Cytochrome P450 inhibition (fluorescence), CYP2D6; format: in vitro ADME
Chain of CYP2D6 (P10635 whole entry): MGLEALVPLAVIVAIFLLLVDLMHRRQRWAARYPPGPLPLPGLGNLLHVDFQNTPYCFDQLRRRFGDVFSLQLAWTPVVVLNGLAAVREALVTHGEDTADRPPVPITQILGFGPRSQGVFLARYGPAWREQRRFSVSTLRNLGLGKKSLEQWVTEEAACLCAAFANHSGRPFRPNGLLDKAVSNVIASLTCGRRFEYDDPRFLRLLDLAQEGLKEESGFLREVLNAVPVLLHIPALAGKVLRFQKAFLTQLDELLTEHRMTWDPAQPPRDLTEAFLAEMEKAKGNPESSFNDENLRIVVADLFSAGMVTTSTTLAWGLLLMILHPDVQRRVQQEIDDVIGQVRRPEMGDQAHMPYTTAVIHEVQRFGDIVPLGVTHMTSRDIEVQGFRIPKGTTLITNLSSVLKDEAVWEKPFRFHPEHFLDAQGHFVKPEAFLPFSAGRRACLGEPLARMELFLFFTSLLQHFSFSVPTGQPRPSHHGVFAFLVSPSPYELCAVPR
Protocol: as §1

[6] = test system: plasma protein; assay: Plasma protein binding (equilibrium dialysis), mouse; settings: mouse plasma, 1 μM, 5 h dialysis
Protocol: Sample preparation: The compound was dissolved in DMSO to a stock solution of 10 mM, then the compound was diluted with PBS to a secondary stock solution of 0.02 mM, and then the above 0.02 mM was diluted to 1 μM using blank plasma, which was the sample to be incubated.
Dialysis set-up preparation: 400 μL of blank PBS was first added to the white wells of the equilibrated dialysis plate and 200 μL of the configured plasma sample was added to the red wells, and the dialysis plate was sealed with a sealing film.
Recovery plate preparation: Two 96-well deep-well plates, labelled T0 and T5, were prepared and all plasma samples were added at n=2. 300 μL of acetonitrile (Verapamil-HCl, 4 ng/mL) was added directly to the TO plate, followed by 50 μL of blank PBS mix well for 5 min and left to stand in a 4° C. refrigerator until the end of the incubation.
Experimental Operation: The dialysis device and the T5 plate were incubated together for 5 h in a microplate thermostatic shaker (37° C., using 300 rpm or minimum speed). At the end of the incubation, 300 μL of acetonitrile (Verapamil-HCl, 4 ng/mL) was added and 50 μL of PBS solution was added. At the end of the dialysis incubation, a new 96-well deep well plate was taken. Add 50 μL of plasma well sample to the corresponding position of the 96-well plate, 300 μL of acetonitrile and 50 μL of blank PBS; take 50 μL of buffer well sample to the corresponding position of the 96-well plate, then add 300 μL of acetonitrile and 50 μL of blank plasma. Add 300 μL of acetonitrile (Verapamil-HCl, 4 ng/mL) to the plasma-containing wells of the T5 plate, and then 50 μL of PBS solution was added. Shake for 5 min to fully precipitate the proteins and centrifuge at 20,000 g for 10 min at 4° C. Add 200 μL of supernatant to 200 μL of pure water, mix well and perform LC-MS/MS analysis.
• Plasma protein binding rate=[(Rpe−Rb)/Rpe]×100% • Recovery=[(Rpe+Rb)/R5 h]×100% • Stability=(R5/R0)×100%
• Rpe=ratio of plasma-side testing sample peak area to internal standard • Rb=ratio of buffer side testing sample peak area to internal standard • R5=ratio of incubator stability sample peak area to internal standard • R0=ratio of refrigerator stability sample peak area to internal standard

[7] = test system: HT-29 cells; assay: Cell Titer-Glo anti-proliferation, HT-29 cells; format: cell-based, human; settings: 3 days, read-out: Anti-proliferative activity HT-29 (IC50 class)
Outline: (§3)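 Each line was exposed to graded compound concentrations for 3 days at 37 °C, 5% CO2, with final DMSO at 0.2%. Viability was measured by Cell Titer-Glo luminescence, with untreated cells as the maximum and medium as the minimum signal. IC50 came from a variable-slope log(inhibitor)-response fit.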

[8] = test system: plasma protein; assay: Plasma protein binding (equilibrium dialysis), rat; format: in vitro ADME; settings: 1 μM, 5 h dialysis
[9] = Metabolic stability in liver microsomes, monkey; format: in vitro ADME
Protocol: as §2, with “Microsomes” for “Test Example 3: Evaluation of the Metabolic Stability of Liver Microsomes (Mouse and Human) In Vitro Microsomes”

[10] = target: CYP3A4 (Homo sapiens (Human), UniProt P08684); assay: Cytochrome P450 inhibition (fluorescence), CYP3A4; format: in vitro ADME
Chain of CYP3A4 (P08684 whole entry): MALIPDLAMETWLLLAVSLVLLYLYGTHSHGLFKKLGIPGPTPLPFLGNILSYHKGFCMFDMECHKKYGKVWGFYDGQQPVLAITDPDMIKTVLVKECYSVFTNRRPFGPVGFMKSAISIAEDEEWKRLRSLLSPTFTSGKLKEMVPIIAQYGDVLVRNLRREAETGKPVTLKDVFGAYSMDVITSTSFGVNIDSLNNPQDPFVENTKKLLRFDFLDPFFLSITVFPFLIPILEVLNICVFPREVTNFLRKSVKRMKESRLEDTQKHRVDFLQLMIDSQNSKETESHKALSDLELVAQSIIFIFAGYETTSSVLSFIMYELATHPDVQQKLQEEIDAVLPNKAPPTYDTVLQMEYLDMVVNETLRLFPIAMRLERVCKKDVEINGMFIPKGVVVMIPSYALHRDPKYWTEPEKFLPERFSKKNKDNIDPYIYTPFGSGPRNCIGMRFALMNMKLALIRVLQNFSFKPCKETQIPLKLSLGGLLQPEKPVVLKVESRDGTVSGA
Protocol: as §1

[11] = test system: BxPC3 cells; assay: Cell Titer-Glo anti-proliferation, BxPC3 cells; format: cell-based, human; settings: 3 days, read-out: Anti-proliferative activity BxPC3 (IC50 class)
Outline: as §3

[12] = test system: OVCAR-3 cells; assay: Cell Titer-Glo anti-proliferation, OVCAR-3 cells; format: cell-based; settings: 3 days, read-out: Anti-proliferative activity OVCAR-3 (IC50 class)
Outline: as §3

[13] = target: CYP2C8 (Homo sapiens (Human), UniProt P10632); assay: Cytochrome P450 inhibition (fluorescence), CYP2C8; format: in vitro ADME
Chain of CYP2C8 (P10632 whole entry): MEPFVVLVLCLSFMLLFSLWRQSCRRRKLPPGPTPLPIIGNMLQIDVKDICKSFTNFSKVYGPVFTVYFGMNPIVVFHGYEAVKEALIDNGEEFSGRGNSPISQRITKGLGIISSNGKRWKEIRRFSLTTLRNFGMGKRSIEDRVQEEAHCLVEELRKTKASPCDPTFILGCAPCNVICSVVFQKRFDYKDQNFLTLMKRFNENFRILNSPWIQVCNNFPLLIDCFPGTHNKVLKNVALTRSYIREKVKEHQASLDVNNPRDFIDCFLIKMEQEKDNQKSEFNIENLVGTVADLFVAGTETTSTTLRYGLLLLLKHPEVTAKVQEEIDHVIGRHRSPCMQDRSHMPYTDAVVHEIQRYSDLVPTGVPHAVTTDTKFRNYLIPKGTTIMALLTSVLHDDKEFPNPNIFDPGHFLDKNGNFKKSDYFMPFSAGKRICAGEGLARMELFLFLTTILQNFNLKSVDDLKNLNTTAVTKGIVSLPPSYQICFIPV
Protocol: as §1

[14] = target: CYP2C9 (Homo sapiens (Human), UniProt P11712); assay: Cytochrome P450 inhibition (fluorescence), CYP2C9; format: in vitro ADME
Chain of CYP2C9 (P11712 whole entry): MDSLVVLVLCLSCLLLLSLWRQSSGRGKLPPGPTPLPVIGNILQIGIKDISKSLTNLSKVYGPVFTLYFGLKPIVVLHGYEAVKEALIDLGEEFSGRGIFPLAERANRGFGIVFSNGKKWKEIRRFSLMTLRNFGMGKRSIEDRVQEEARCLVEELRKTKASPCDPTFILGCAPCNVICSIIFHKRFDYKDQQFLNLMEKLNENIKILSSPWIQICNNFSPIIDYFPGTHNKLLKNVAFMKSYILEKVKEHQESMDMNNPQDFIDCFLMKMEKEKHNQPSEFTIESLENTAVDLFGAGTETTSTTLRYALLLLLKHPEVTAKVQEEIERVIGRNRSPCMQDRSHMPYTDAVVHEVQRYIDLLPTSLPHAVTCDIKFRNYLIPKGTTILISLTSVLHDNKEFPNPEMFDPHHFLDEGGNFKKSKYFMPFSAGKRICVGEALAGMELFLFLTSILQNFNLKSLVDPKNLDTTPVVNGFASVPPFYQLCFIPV
Protocol: as §1

[15] = Metabolic stability in liver microsomes, human; format: in vitro ADME
Protocol: as §2

[16] = Metabolic stability in liver microsomes, rat; format: in vitro ADME
Protocol: as §2, with “Microsomes” for “Test Example 3: Evaluation of the Metabolic Stability of Liver Microsomes (Mouse and Human) In Vitro Microsomes”

[17] = target: Wee1 protein (Homo sapiens (Human), UniProt P30291); assay: TR-FRET binding of compound to Wee1 protein and Tracer 178; settings: Tracer 178, read-out: IC50, inhibitory activity against Wee1 kinase
Chain of Wee1 protein (P30291 whole entry): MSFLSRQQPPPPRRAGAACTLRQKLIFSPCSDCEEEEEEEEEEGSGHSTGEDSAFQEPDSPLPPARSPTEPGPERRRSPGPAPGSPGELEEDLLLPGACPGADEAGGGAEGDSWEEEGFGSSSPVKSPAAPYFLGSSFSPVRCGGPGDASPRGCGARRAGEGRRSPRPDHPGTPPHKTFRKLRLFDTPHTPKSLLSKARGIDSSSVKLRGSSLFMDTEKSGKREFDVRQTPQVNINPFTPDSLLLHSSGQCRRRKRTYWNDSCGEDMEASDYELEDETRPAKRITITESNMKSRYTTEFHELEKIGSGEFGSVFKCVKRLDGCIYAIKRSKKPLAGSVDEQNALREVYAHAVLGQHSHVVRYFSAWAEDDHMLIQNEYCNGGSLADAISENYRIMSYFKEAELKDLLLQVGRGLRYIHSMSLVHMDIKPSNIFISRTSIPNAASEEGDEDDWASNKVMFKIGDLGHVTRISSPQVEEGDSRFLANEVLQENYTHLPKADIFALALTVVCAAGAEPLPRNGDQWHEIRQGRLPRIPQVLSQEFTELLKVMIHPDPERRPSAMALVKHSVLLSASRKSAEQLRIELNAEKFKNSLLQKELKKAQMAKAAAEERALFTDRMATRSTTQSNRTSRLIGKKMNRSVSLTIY

[18] = target: CYP2C19 (Homo sapiens (Human), UniProt P33261); assay: Cytochrome P450 inhibition (fluorescence), CYP2C19; format: in vitro ADME
Chain of CYP2C19 (P33261 whole entry): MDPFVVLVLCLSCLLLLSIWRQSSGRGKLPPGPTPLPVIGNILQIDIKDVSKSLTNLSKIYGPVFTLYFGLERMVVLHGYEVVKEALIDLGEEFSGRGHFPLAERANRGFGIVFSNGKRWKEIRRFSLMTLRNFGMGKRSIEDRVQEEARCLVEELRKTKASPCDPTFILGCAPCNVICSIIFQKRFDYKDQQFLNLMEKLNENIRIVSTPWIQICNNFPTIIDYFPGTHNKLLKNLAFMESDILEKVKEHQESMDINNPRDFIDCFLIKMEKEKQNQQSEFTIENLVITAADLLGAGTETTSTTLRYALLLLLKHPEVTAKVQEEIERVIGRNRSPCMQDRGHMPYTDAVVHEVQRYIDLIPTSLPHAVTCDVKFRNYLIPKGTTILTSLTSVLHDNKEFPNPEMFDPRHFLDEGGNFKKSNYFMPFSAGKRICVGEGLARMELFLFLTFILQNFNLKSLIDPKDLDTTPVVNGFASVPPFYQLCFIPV
Protocol: as §1

[19] = test system: HK2 cells; assay: Cell Titer-Glo anti-proliferation, normal cells HK2; format: cell-based
Protocol: (§4) Compound solutions of different concentration gradients were prepared. […] The cell growth group without compound was used as a positive control (maximum signal control) and the medium was used as a negative control (minimum signal control), while ensuring that the final level of DMSO in each reaction well was 0.2%. After removing the medium from the 384-well plate, 25 μl of the configured compound at different concentrations was transferred into the well plate and the compound and cells were incubated in the cell incubator at 37° C. with 5% CO2 for 3 days.
(§5) The 384-well plates were removed from the cell incubator and allowed to equilibrate for 1 h to room temperature. 25 μl of Cell Titer-Glo assay was added to each well, lysed on a shaker for 2 min and then read out (Luminescence) using a BMG PHERAStar after 10 min incubation. Calculate the inhibition rate from the luminescence signal.
(§6) to calculate the rate of inhibition of the cells by different concentrations of the compounds. The IC50 of the compound on cell activity inhibition was calculated by fitting a log(inhibitor) vs. response-Variable slope model to GraphPad Prism 6. The fitted equation was: Y=Bottom+(Top-Bottom)/(1+10^((Log IC50−X)*HillSlope)), where Y represents the rate of inhibition and X represents the concentration of the known compound after Log.
(§7) B. Evaluation of the Anti-Proliferative Effect of Compounds by the Cell Titer-Glo Method on Normal Cells HUVEC and HK2.
(§8) The test method is the same as the anti-proliferative activity evaluation of tumor cells.

[20] = test system: HUVEC cells; assay: Cell Titer-Glo anti-proliferation, normal cells HUVEC; format: cell-based
Protocol: as §4, §5, §6, §7, §8

[21] = Toxicity in rats after 14 consecutive days of administration, survival; settings: 75 mg/kg qd by gavage, 14 days
[22] = test system: Caco-2 cells; assay: Membrane permeability in Caco-2 model; format: in vitro ADME
Protocol: Caco-2 cells were purchased from the American Model Tissue Cell Collection (Rockville, MD). The cell culture medium was modified Eagle's medium (MEM) containing 10% inactivated fetal bovine serum and 1% non-essential amino acids. […] The cells were incubated for 21-28 days after inoculation for transport experiments and the apparent permeability (Papp) of Lucifer Yellow was used to characterize and verify the compactness of the cell monolayer. […] After the incubation, dilute the samples on the apical side and basolateral side, and the concentrations of compounds on the apical and basolateral sides were detected by LC-MS/MS, and the concentrations of the compounds were quantified by standard curve.

[23] = Saturated solubility in buffer at different pH; format: physicochemical
Protocol: The compound was placed in a buffer solution and shaken at constant temperature for 24 h. […] Chromatographic conditions: C18 column, mobile phase A: 0.02 M potassium dihydrogen phosphate:acetonitrile=90:10, mobile phase B: acetonitrile; V: 1.0 ml/min, T: 35° C., λ: 210 nm.

Chain of CYP1A2 (P05177 whole entry, canonical isoform): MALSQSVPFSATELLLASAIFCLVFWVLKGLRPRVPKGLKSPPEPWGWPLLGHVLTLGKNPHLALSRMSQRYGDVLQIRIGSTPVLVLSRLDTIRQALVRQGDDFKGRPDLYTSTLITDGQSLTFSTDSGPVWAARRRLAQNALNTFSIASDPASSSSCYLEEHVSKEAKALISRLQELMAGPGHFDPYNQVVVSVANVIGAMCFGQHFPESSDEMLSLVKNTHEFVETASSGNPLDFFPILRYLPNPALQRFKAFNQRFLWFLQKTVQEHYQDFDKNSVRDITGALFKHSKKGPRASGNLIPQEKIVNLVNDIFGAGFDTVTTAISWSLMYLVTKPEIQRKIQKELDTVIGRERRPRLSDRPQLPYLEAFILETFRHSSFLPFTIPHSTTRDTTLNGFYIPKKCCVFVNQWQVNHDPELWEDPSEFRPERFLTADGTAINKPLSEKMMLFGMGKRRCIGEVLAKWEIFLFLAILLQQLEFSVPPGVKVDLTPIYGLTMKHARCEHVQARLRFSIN

Structure (SMILES) | IC50 [1] [nM] | T1/2 liver microsomes Mouse [2] [h] | hERG Inhibition ([3]; test concentration 5 μM) [%] | hERG Inhibition ([3]; test concentration 20 μM) [%] | T1/2 liver microsomes Dog [4] [h] | IC50 ([5]; read-out: IC50 CYP2D6) [nM] | Plasma Protein binding (PPB) Mouse [6] [%] | IC50 [7] [nM] | Plasma Protein binding (PPB) Rat [8] [%] | T1/2 liver microsomes Monkey [9] [h] | IC50 ([10]; read-out: IC50 CYP3A4) [nM] | IC50 [11] [nM] | IC50 [12] [nM] | IC50 ([13]; read-out: IC50 CYP2C8) [nM] | IC50 ([14]; read-out: IC50 CYP2C9) [nM] | T1/2 liver microsomes Human [15] [h] | T1/2 liver microsomes Rat [16] [h] | IC50 [17] [nM] | IC50 [19] [nM] | IC50 [20] [nM] | further results
C=CCn1c(=O)c2cnc(Nc3ccc(N4CCC5(CCN(C)CC5)CC4)cc3)nc2n1-c1ccc2c(n1)[C@](C)(O)C1(CC2)CC1 (racemic) [Compound 44] | > 10000 | 1.05 | 77.68 ± 4.16 | 91.56 ± 2.72 | 0.7135 | > 10000 | 98.46 | 100 to 1000 | 96.98 | 0.5015 | > 10000 | 100 to 1000 | 100 to 1000 | > 10000 | > 10000 | 1.296 | >2 |  |  |  | 
C=CCn1c(=O)c2cnc(Nc3ccc(N4CCN(C)CC4)cc3)nc2n1-c1ccc2c(n1)C(C)(O)C1(CC1)C2 (centres unmarked) [Compound 3] |  |  |  |  |  |  | 87.75 | 100 to 1000 |  |  |  | 1000 to 2000 | 1000 to 2000 |  |  |  |  | 5 to 10 |  |  | IC50 ([1]; read-out: IC50 CYP1A2): > 10000 nM; IC50 [5]: > 10000 nM; IC50 [18]: > 10000 nM; IC50 [10]: > 10000 nM; IC50 [13]: > 10000 nM; IC50 [14]: > 10000 nM
C=CCn1c(=O)c2cnc(Nc3ccc(N4CC5CC(C4)N5C)cc3)nc2n1-c1ccc2c(n1)[C@@](C)(O)C1(CC2)CC1 [Compound 7a] | > 10000 | 1.209 |  |  | 1.541 | > 10000 | 97.21 | 100 to 1000 | 94.82 | 0.2625 | > 10000 | 100 to 1000 | 100 to 1000 | > 10000 | > 10000 | 1.057 | 0.357 | 5 to 10 | 670 | > 10000 | 
C=CCn1c(=O)c2cnc(Nc3ccc(N4CCN(C)CC4)cc3)nc2n1-c1ccc2c(n1)[C@@](O)(CC)CC2 [ZnC3, reference compound] |  |  | 7.38 ± 1.59 | 18.05 ± 7.58 |  |  |  | 100 to 1000 |  |  |  | 100 to 1000 | 100 to 1000 |  |  |  |  | 10 to 100 | 340 | > 10000 | Survival of Rats ([21]; female rats): 1/7; Survival of Rats ([21]; male rats): 2/7; Efflux Ration ([22]; Caco2): 35.74; Papp A to B ([22]; Caco2, 10 μM, 90 min): 0.42 10^−6 cm/s; Papp B to A ([22]; Caco2, 10 μM, 90 min): 15.01 10^−6 cm/s; Saturated solubility pH 5.0 ([23]; pH 5): 0.35 mg/mL; Saturated solubility pH 6.5 ([23]; pH 6.5): 0.59 mg/mL; Saturated solubility pH 7.4 ([23]; pH 7.4): 0.68 mg/mL
